Assays:
[1] = Permeation in the CFEP formulations; details: in any of the three formulations of Example 3
[2] = free base; cited from earlier work
[3] = oral; cited from earlier work
patients = details: oral formulations; cited from earlier work
arthritic patients = assay: Topical cetylated fatty ester complexes with rubefacients versus placebo base, joint functionality and pain; assay type: in vivo, human; details: eucalyptus oil 1% to 5%, camphor 1-7% in the carrier formulation
From the text: The composition of the invention provides for the administration of permeants with anti-arthritic properties. A topical application consisting of the cetylated fatty ester complexes in concentrations of 5% to 20% with rubefacients (such as methyl salicylate, menthol and for some variations capsaicin can be applied to affected areas of arthritic patients). The permeants were at concentrations ranging from 1-30%. The carrier formulation consisted of a penetrant group of 8 cetyl fatty esters (4-9%; cetyl decanoate, cetyl laurate, cetyl myristate, cetyl myristoleate, cetyl oleate, cetyl palmitate, cetyl palmitoleate and cetyl stearate) with propylene glycol as the polar solvent (12%), in the described cream base at a pH of 6.5. One variation of carrier formulation is also an anti-inflammatory and is used topically to treat joint pain and musculoskeletal pain and other types of pains in arthritis (Kraemer W J et al. 2004 J Rheumatology 31:767-74; Kraemer W J et al. 2005 J Strength and Conditioning Res 19: 475-80 and Sharan et al. 2009, submitted for publication), The preferred polar solvent is propylene glycol. […]

mouse skin = assay: Transdermal diazepam in CFEP-Complex formulation delivered to mouse skin; assay type: in vivo; details: single application to mouse skin in 4-9% CFEP-Complex formulation; preliminary, 'may provide'
Protocol: A formulation for transdermal delivery is a novel format for diazepam or lorazepam or clonazepam, and utilizes the lipophilic properties of each molecule. In one example diazepam is administered in 3 doses, namely 10 mg/gram, 25 mg/gram and 50 mg/gram using a 4-9% CFEP-Complex carrier formulation consisting of cetyl decanoate, cetyl laurate, cetyl myristate, cetyl myristoleate, cetyl oleate, cetyl palmitate, cetyl palmitoleate and cetyl stearate. The polar solvent used is propylene glycol (12%) in the described cream base at a pH of 6.5. A pH range of 6-7 is effective and tocopherol acetate is the antioxidant at 1%. […] The permeant is first finely emulsified in the CFEP-Complex and polar solvent prior to addition of the cream base. A single application of diazepam delivered to mouse skin in this formulation may provide pronounced activity for 5-8 hours. […] Pregabalin in a topical format is also an excellent anti-convulsant and useful in the treatment of seizure already described in examples 4 and 5 above.

[4] = oral; cited from earlier work; remark: listed apart in the source
[5] = intravenous injection, 5 mg; cited from earlier work

O=C(O)CCCCC1CCSS1 (stereo not drawn) [Alpha lipoic acid]
permeation [1]: permeates well

CNC1(c2ccccc2Cl)CCCCC1=O (centres unmarked) [Ketamine, 2-(2-chlorophenyl)-2-(methylamino)-cyclohexanone]
lipid solubility [2]: 10 times that of thiopentone

CC(C)C[C@H](CN)CC(=O)O [Pregabalin]
bioavailability [3]: more than 90% | adverse reactions such as drowsiness and dizziness, share of the patients (patients): more than 10%

CC12CCC(CC1=O)C2(C)C (centres unmarked) [camphor]
other rubefacients found to be effective (arthritic patients): effective

CN1C(=O)CN=C(c2ccccc2)c2cc(Cl)ccc21 [diazepam]
duration of pronounced activity (mouse skin): 5 to 8 h

C/C1=C2/[N-][C@H]([C@H](CC(N)=O)[C@@]2(C)CCC(=O)NC[C@@H](C)OP(=O)([O-])O[C@H]2[C@@H](O)[C@@H](n3cnc4cc(C)c(C)cc43)O[C@@H]2CO)[C@]2(C)N=C(/C(C)=C3N=C(/C=C4N=C1[C@@H](CCC(N)=O)C\4(C)C)[C@@H](CCC(N)=O)[C@]\3(C)CC(N)=O)[C@@H](CCC(N)=O)[C@]2(C)CC(N)=O.[CH3-].[Co+3] [methylcobalamin]
rate of absorption by passive diffusion [4]: 1-2 % of the ingested material

CCN(CC)CC#CCOC(=O)C(O)(c1ccccc1)C1CCCCC1 (centres unmarked) [oxybutynin]
Tmax [5]: 15 min
